The text below walks through data of the supplement of paper PMC3974653.

The experiment deals with MTT (mouse pheochromocytoma). Briefly: IC50 of cell viability (ATP content). The following applies: (24 or 48 h). The procedure, abridged: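 The IC50 was fitted with a four-parameter logistic equation to normalised CellTiter-Glo ATP luminescence from MTT mouse pheochromocytoma cells. These cells, in white 1536-well plates, had been treated for 24 or 48 hrs with library compounds at 8 final concentrations between 0.5 nM and 46 µM, and luminescence was read after 15 minutes. Positive-control wells served as 100% and DMSO wells as 0%.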

Molecules are shown by their SMILES. Counter-ions that a name gives are not always drawn. Some results are limits rather than exact numbers.

As for `[Na+].CCCC(C)C1(CC=C)C(=O)N\C(=N/C1=O)[S-]` (stereo unspecified) [THIAMYLAL SODIUM], the “IC50 of cell viability” value is above 46 µM.

In the case of `S=P(N1CC1)(N1CC1)N1CC1` [THIO-TEPA], the “IC50 of cell viability” value was above 46 µM.

Consider `CC(=O)Nc1ccc(/C=N/NC(N)=S)cc1` [THIOACETAZONUM], for which the “IC50 of cell viability” value was above 46 µM.

Turning to `NC(=O)CCCCC1CCSS1` (stereo unspecified) [THIOCTIC ACID AMIDE], the “IC50 of cell viability” value is above 46 µM.

As to `OCC(O)CS` (stereo unspecified) [THIOGLYCEROL], the “IC50 of cell viability” value was above 46 µM.

In the case of `NC/1=N/C2=C([NH]C=N2)C(=S)N1` [THIOGUANINE], the “IC50 of cell viability” value is above 46 µM.

For `CCCC(C)C1(CC)C(=O)NC(=S)NC1=O` (stereo unspecified) [THIOPENTAL SODIUM], the “IC50 of cell viability” value was above 46 µM.

`CSc1ccc2c(c1)N(CCC1CCCCN1C)c1ccccc1S2` (stereo unspecified) [THIORIDAZINE]: the “IC50 of cell viability” value was above 46 µM.

In the case of `COc1ccc(CN(CCN(C)C)c2ncccn2)cc1.Cl` [THONZYLAMINE HYDROCHLORIDE], the “IC50 of cell viability” value was above 46 µM.

Take `CC(O)C(N)C(=O)O` (stereo unspecified) [THREONINE]: the “IC50 of cell viability” value was above 46 µM.

Turning to `Cc1cc(OI)c(C(C)C)cc1-c1cc(C(C)C)c(OI)cc1C` [THYMOL IODIDE], the “IC50 of cell viability” value was above 46 µM.

On to `CC(C)C(NC(=O)C(CC(=O)O)NC(=O)C(CCCCN)NC(=O)C(N)CCCNC(=N)N)C(=O)NC(Cc1ccc(O)cc1)C(=O)O` (stereo unspecified) [THYMOPENTINUM], for which the “IC50 of cell viability” value was above 46 µM.

`C=C[C@]1(C)C[C@@H](OC(=O)CSCCN(CC)CC)[C@]2(C)C(C)CC[C@]3(CCC(=O)[C@H]32)[C@@H](C)[C@@H]1O` (stereo partly specified) [TIAMULIN]: the “IC50 of cell viability” value was above 46 µM.

As for `CN1c2ccccc2C(NCCCCCCC(=O)[O][Na])c2ccc(Cl)cc2[S+]1(=O)[O-]` (stereo unspecified) [TIANEPTINUM], the “IC50 of cell viability” value is above 46 µM.

Regarding `C#C[C@]1(O)CC[C@H]2[C@H]3[C@H](CC[C@@]21C)C1=C(CC(=O)CC1)C[C@@H]3C` [TIBOLONE], the “IC50 of cell viability” value is above 46 µM.

As to `Clc1ccccc1CN1CCc2sccc2C1` [TICLOPIDINE], the “IC50 of cell viability” value is above 46 µM.

Turning to `CCN(CC)CCSC(=O)C(c1ccccc1)c1ccccc1` [TIFENAMILUM], the “IC50 of cell viability” value is above 46 µM.

With `CCC1OC(=O)C[C@H](O)C(C)[C@@H](O[C@@H]2OC(C)C(O)[C@H](N(C)C)C2O)C(CCN2CC(C)CC(C)C2)CC(C)C(=O)/C=C/C(C)=C\[C@@H]1COC1OC(C)C(O)C(OC)C1OC` (stereo partly specified) [TILMICOSIN], the “IC50 of cell viability” value was above 46 µM.

Take `CCN(CC)CCOc1ccc2c(c1)C(=O)c1cc(OCCN(CC)CC)ccc1-2` [TILORONE]: the “IC50 of cell viability” value was above 46 µM.

With `O=P([O-])(O)C(Sc1ccc(Cl)cc1)P(=O)([O-])O` [TILUDRONATE DISODIUM], the “IC50 of cell viability” value was above 46 µM.

With `COC1C\C(C[N+](C)(C)C1)=C(/C2=CC=CS2)C3=CC=CS3` (stereo unspecified) [TIMEPIDIUM BROMIDE], the “IC50 of cell viability” value was above 46 µM.

Take `O=C(O)[C@@H]1CSCN1` [TIMONACICUM]: the “IC50 of cell viability” value was above 46 µM.

Take `Clc1ccc(C(Cn2ccnc2)OCc2ccsc2Cl)c(Cl)c1` (stereo unspecified) [TIOCONAZOLE]: the “IC50 of cell viability” value was above 46 µM.

Turning to `CC(S)C(=O)NCC(=O)O` (stereo unspecified) [TIOPRONIN], the “IC50 of cell viability” value was above 46 µM.

Consider `CN/C(=N/C#N)NCCSCc1csc(N=C(N)N)n1` [TIOTIDINE], for which the “IC50 of cell viability” value is above 46 µM.

`C[N+]1(C)[C@@H]2CC(OC(=O)C(O)(c3cccs3)c3cccs3)C[C@H]1[C@@H]1O[C@@H]12` (stereo partly specified) [TIOTROPIUM BROMIDE MONOHYDRATE]: the “IC50 of cell viability” value was above 46 µM.

Regarding `O=c1oc2cc(O)ccc2s1` [TIOXOLONE], the “IC50 of cell viability” value is above 46 µM.

In the case of `CN1CCC\C(C1)=C(/C2=CC=CS2)C3=CC=CS3` [TIPEPIDINE HIBENZATE], the “IC50 of cell viability” value was above 46 µM.

`CCC[C@]1(CCc2ccccc2)CC(O)=C([C@H](CC)c2cccc(N[S+](=O)([O-])c3ccc(C(F)(F)F)cn3)c2)C(=O)O1` [TIPRANAVIR]: the “IC50 of cell viability” value is above 46 µM.

With `COC1=C(OC)C=C(CNCC(O)COC2=CC=C3NC(=O)\C=C/C3=C2)C=C1` (stereo unspecified) [TOBORINONE], the “IC50 of cell viability” value was above 46 µM.

As for `Cc1c(C)c2c(c(C)c1OC(=O)c1cccnc1)CC[C@@](C)(CCC[C@H](C)CCC[C@H](C)CCCC(C)C)O2` [TOCOPHEROL NICOTINATE], the “IC50 of cell viability” value is above 46 µM.

Take `Cc1c(C)c2c(c(C)c1OC(=O)CCC(=O)O)CC[C@@](C)(CCC[C@H](C)CCC[C@H](C)CCCC(C)C)O2` [TOCOPHERYL SUCCINATE]: the “IC50 of cell viability” value was above 46 µM.

In the case of `CC1=C(/C=C/C(C)=C/C=C/C(C)=C/C(=O)Oc2c(C)c(C)c3c(c2C)CC[C@@](C)(CCC[C@H](C)CCC[C@H](C)CCCC(C)C)O3)C(C)(C)CCC1` [TOCORETINATE], the “IC50 of cell viability” value is above 46 µM.

With `CCC1\C(=N/N=C(C2=CC(=C(OC)C=C2)OC)\C3=C1C=C(OC)C(=C3)OC)C` (stereo unspecified) [TOFISOPAM], the “IC50 of cell viability” value was above 46 µM.

In the case of `Cc1ccccc1OCC(O)CNCCOc1ccc(C(N)=O)cc1` (stereo unspecified) [TOLAMOLOLUM], the “IC50 of cell viability” value was above 46 µM.

In the case of `Cc1ccc([S+](=O)([O-])NC(=O)NN2CCCCCC2)cc1` [TOLAZAMIDE], the “IC50 of cell viability” value was above 46 µM.

Take `CCCCNC(=O)N[S+](=O)([O-])c1ccc(C)cc1` [TOLBUTAMIDE]: the “IC50 of cell viability” value was above 46 µM.

As for `Cc1ccc(C(=O)c2cc(O)c(O)c([N+](=O)[O-])c2)cc1` [TOLCAPONE], the “IC50 of cell viability” value was above 46 µM.

With `Cc1c(Cl)cccc1Nc1ccccc1C(=O)O` [TOLFENAMIC ACID], the “IC50 of cell viability” value was above 46 µM.

In the case of `Cc1cccc(N(C)C(=S)Oc2ccc3c(c2)CCC3)c1` [TOLINDATE], the “IC50 of cell viability” value is above 46 µM.

With `Cc1ccc(S(=O)(=O)NC(=O)NC2CCCC2)cc1` [TOLPENTAMIDUM], the “IC50 of cell viability” value is above 46 µM.

As to `Cc1ccc(C(=O)C(C)CN2CCCCC2)cc1.Cl` (stereo unspecified) [TOLPERISONE HYDROCHLORIDE], the “IC50 of cell viability” value was above 46 µM.

`Cc1ccccc1C(=O)Nc1ccc(C(=O)N2CCCC(O)c3cc(Cl)ccc32)c(C)c1` (stereo unspecified) [TOLVAPTAN]: the “IC50 of cell viability” value was above 46 µM.

In the case of `CC1CC[C@@]2(NC1)OC1CC3C4CC[C@@H]5CC(O)CC[C@@]5(C)C4CC[C@]3(C)C1C2C.Cl` (stereo partly specified) [TOMATIDINE HYDROCHLORIDE], the “IC50 of cell viability” value was above 46 µM.

With `CC1(C)OC2CO[C@]3(CO[S+](N)(=O)[O-])OC(C)(C)OC3C2O1` (stereo partly specified) [TOPIRAMATE], the “IC50 of cell viability” value was above 46 µM.

Turning to `Cc1ccc([S+](=O)([O-])NC(=O)NC(C)Cc2ccccc2)cc1` (stereo unspecified) [TOSIFENUM], the “IC50 of cell viability” value is above 46 µM.

For `NC1CCN(c2nc3c(cc2F)c(=O)c(C(=O)O)cn3-c2ccc(F)cc2F)C1` (stereo unspecified) [TOSUFLOXACIN TOSILATE], the “IC50 of cell viability” value is above 46 µM.

Consider `CCOC(=O)C(CCc1ccccc1)NC(C)C(=O)N1C(C(=O)O)CC2CCCCC21` (stereo unspecified) [TRANDOLAPRIL], for which the “IC50 of cell viability” value is above 46 µM.

In the case of `O=C(O)/C=C(/CC(=O)O)C(=O)O` [TRANS-ACONITIC ACID], the “IC50 of cell viability” value was above 46 µM.

`[H][C@]1(\C=C(/Cl)Cl)[C@]([H])(C(=O)OCC2=C(F)C(F)=CC(F)=C2F)C1(C)C` [TRANSFLUTHRIN]: the “IC50 of cell viability” value was above 46 µM.

Consider `CC(=O)O[C@H]1CC[C@H]2[C@@H]3CCC4=CC(=O)CCC4=C3C=C[C@]12C` [TRENBOLONE ACETATE], for which the “IC50 of cell viability” value was above 46 µM.

For `C[S+](=O)([O-])OCC(O)C(O)CO[S+](C)(=O)[O-]` (stereo unspecified) [TREOSULFAN], the “IC50 of cell viability” value was above 46 µM.

Regarding `CCOc1cc(OCC)c(C(=O)CCC(=O)O)cc1OCC` [TREPIBUTONE], the “IC50 of cell viability” value was above 46 µM.

Take `CC1=C(/C=C/C(C)=C/C=C/C(C)=C/C(=O)O)C(C)(C)CCC1` [TRETINOIN]: the “IC50 of cell viability” value is above 46 µM.

On to `C[C@@]12CC(O)[C@]3(F)C(CCC/4=C/C(=O)/C=C\[C@@]34C)C1CC(O)[C@@]2(O)C(=O)CO` (stereo partly specified) [TRIAMCINOLONE], for which the “IC50 of cell viability” value is above 46 µM.

As to `CC1=NN=C2C\N=C(\C3=C(Cl)C=CC=C3)C4=C(C=CC(=C4)Cl)[N]12` [TRIAZOLAM], the “IC50 of cell viability” value is above 46 µM.

On to `O=C(Nc1ccc(Br)cc1)c1cc(Br)cc(Br)c1O` [TRIBROMSALAN], for which the “IC50 of cell viability” value was above 46 µM.

In the case of `CCOC(=O)c1cccc(N)c1` [TRICAINE METHANESULFONATE], the “IC50 of cell viability” value is above 46 µM.

As for `O[C@H]1[C@H]2[C@H](O)CCCN2C[C@H]1O` [TRIDOLGOSIRUM], the “IC50 of cell viability” value was above 46 µM.

Turning to `OCCOCCOCCO` [TRIETHYLENE GLYCOL], the “IC50 of cell viability” value was above 46 µM.

As for `CC(CN(C)C)CN1c2ccccc2Sc2ccc(C(F)(F)F)cc21` (stereo unspecified) [TRIFLUOMEPRAZINE MALEATE], the “IC50 of cell viability” value is above 46 µM.

Consider `CN(C)CCCN1c2ccccc2Sc2ccc(C(F)(F)F)cc21.Cl` [TRIFLUPROMAZINE HYDROCHLORIDE], for which the “IC50 of cell viability” value was above 46 µM.

On to `Cl.OC(CCN1CCCCC1)(c1ccccc1)C1CCCCC1` (stereo unspecified) [TRIHEXYPHENIDYL HYDROCHLORIDE], for which the “IC50 of cell viability” value is above 46 µM.

For `C[C@]12CC[C@H]3[C@@H](CC[C@@]45O[C@@H]4C(=O)C(C#N)C[C@]35C)[C@@H]1CC[C@@H]2O` (stereo partly specified) [TRILOSTANE], the “IC50 of cell viability” value is above 46 µM.

Consider `CCC(COC(=O)c1cc(OC)c(OC)c(OC)c1)(c1ccccc1)N(C)C.O=C(O)/C=C\C(=O)O` (stereo unspecified) [TRIMEBUTINE MALEATE], for which the “IC50 of cell viability” value is above 46 µM.

For the compound `CC12CCC(C[N+](C)(CCC[N+](C)(C)C)C1)C2(C)C` (stereo unspecified) [TRIMETHIDINII METHOSULFAS], the “IC50 of cell viability” value is above 46 µM.
